Results taken from patent US20230398130A1, “METHODS AND COMPOSITIONS FOR DIFFERENTIATING STEM CELLS” (Massachusetts Institute of Technology, priority 2020, published 2023).

Columns and labels:
[1] = tested on: ISC-enriched organoids; assay: Primary screen, 384-well 2.5-D organoid differentiation (ENR+CD, 6 days): carbachol-induced lysozyme secretion (LYZ.S); format: cell-based, murine; details: for Z.LYZ.S: standard z score; for SSMD.LYZ.S: strictly standardized mean difference; for Dose.FC.LYZ.S: FC vs plate median; for Dose.FC.LYZ.S (log 2 fold change): vs plate median
Description: (§1) High-throughput screening.

[2] = tested on: ISC-enriched organoids; assay: Primary screen, 384-well 2.5-D organoid differentiation (ENR+CD, 6 days, Target Selective Inhibitor Library, vs whole-plate median): ATP (CellTiter-Glo 3D, CTG); details: for SSMD.CTG: strictly standardized mean difference; for Dose.FC.CTG: FC vs plate median; for Dose.FC.CTG (log 2 fold change): vs plate median
[3] = tested on: ISC-enriched organoids; assay: Primary screen, 384-well 2.5-D organoid differentiation (ENR+CD, 6 days): basal lysozyme secretion (LYZ.NS); format: cell-based, murine; details: for SSMD.LYZ.NS: strictly standardized mean difference; for Dose.FC.LYZ.NS: FC vs plate median; for Z.LYZ.NS: standard z score of FC; for Dose.FC.LYZ.NS (log 2 fold change): vs plate median
Description: as §1

[4] = primary screen, 1st of the 4 dose lines of the treatment (dose not given)
[5] = primary screen, 2nd of the 4 dose lines of the treatment (dose not given)
[6] = primary screen, 3rd of the 4 dose lines of the treatment (dose not given)
[7] = primary screen, 4th of the 4 dose lines of the treatment (dose not given)
[8] = Dose 0.08 uM, standard z score of FC
[9] = Dose 0.40 uM, standard z score of FC
[10] = Dose 2.00 uM, standard z score of FC
[11] = Dose 10.00 uM, standard z score of FC

## Nc1nc(OCc2cc(Br)cs2)c2[nH]cnc2n1 [Lomeguatrib]
[1]; [4]
  Z.LYZ.S: −0.528
  SSMD.LYZ.S: −0.435
[1]; [5]
  Z.LYZ.S: −0.139
  SSMD.LYZ.S: −0.121
[1]; [6]
  Z.LYZ.S: −0.356
  SSMD.LYZ.S: −0.346
[1]; [7]
  Z.LYZ.S: −0.893
  SSMD.LYZ.S: −0.820
[2]; Dose 0.08 uM, primary screen, standard z score
  Z.CTG: −1.017
[2]; Dose 0.40 uM, primary screen, standard z score
  Z.CTG: −0.739
[2]; Dose 2.00 uM, primary screen, standard z score
  Z.CTG: 0.178
[2]; Dose 10.00 uM, primary screen, standard z score
  Z.CTG: −0.192
[2]; [4]
  SSMD.CTG: −0.489
[2]; [5]
  SSMD.CTG: −0.422
[2]; [6]
  SSMD.CTG: 0.193
[2]; [7]
  SSMD.CTG: −0.190
[3]; [4]
  SSMD.LYZ.NS: −0.474
[3]; [5]
  SSMD.LYZ.NS: −0.137
[3]; [6]
  SSMD.LYZ.NS: −0.189
[3]; [7]
  SSMD.LYZ.NS: −1.038

## FC(F)(F)c1ccc(/C=C/c2nc(COc3ccc(CCCCn4ccnn4)cc3)co2)cc1 [Mubritinib (TAK 165)]
[1]; Dose 0.08 uM, primary screen
  Dose.FC.LYZ.S: −0.119 log 2 fold change
[1]; Dose 0.40 uM, primary screen
  Dose.FC.LYZ.S: −0.154 log 2 fold change
[1]; Dose 2.00 uM, primary screen
  Dose.FC.LYZ.S: −0.299 log 2 fold change
[1]; Dose 10.00 uM, primary screen
  Dose.FC.LYZ.S: −0.294 log 2 fold change
[2]; Dose 0.08 uM, primary screen
  Dose.FC.CTG: −0.524 log 2 fold change
[2]; [8]
  Z.CTG: −1.252
[2]; Dose 0.40 uM, primary screen
  Dose.FC.CTG: −0.340 log 2 fold change
[2]; [9]
  Z.CTG: −0.812
[2]; Dose 2.00 uM, primary screen
  Dose.FC.CTG: −0.530 log 2 fold change
[2]; [10]
  Z.CTG: −1.265
[2]; Dose 10.00 uM, primary screen
  Dose.FC.CTG: −0.519 log 2 fold change
[2]; [11]
  Z.CTG: −1.240
[3]; Dose 0.08 uM, primary screen
  Dose.FC.LYZ.NS: −0.057 log 2 fold change
[3]; Dose 0.08 uM
  Z.LYZ.NS: −0.500
[3]; Dose 0.40 uM, primary screen
  Dose.FC.LYZ.NS: −0.194 log 2 fold change
[3]; Dose 0.40 uM
  Z.LYZ.NS: −1.687
[3]; Dose 2.00 uM, primary screen
  Dose.FC.LYZ.NS: −0.224 log 2 fold change
[3]; Dose 2.00 uM
  Z.LYZ.NS: −1.950
[3]; Dose 10.00 uM, primary screen
  Dose.FC.LYZ.NS: −0.240 log 2 fold change
[3]; Dose 10.00 uM
  Z.LYZ.NS: −2.092

## Cc1ccc(-n2nccn2)c(C(=O)N2CCN(c3nc4cc(Cl)ccc4o3)CC[C@H]2C)c1 [Suvorexant (MK-4305)]
[1]; Dose 0.08 uM, primary screen
  Dose.FC.LYZ.S (log 2 fold change): 0.186
[1]; Dose 0.40 uM, primary screen
  Dose.FC.LYZ.S (log 2 fold change): 0.142
[1]; Dose 2.00 uM, primary screen
  Dose.FC.LYZ.S (log 2 fold change): 0.101
[1]; Dose 10.00 uM, primary screen
  Dose.FC.LYZ.S (log 2 fold change): 0.131
[2]; Dose 0.08 uM, primary screen
  Z.CTG (standard z score): 0.458
  Dose.FC.CTG (log 2 fold change): 0.192
[2]; Dose 0.40 uM, primary screen
  Z.CTG (standard z score): 0.609
  Dose.FC.CTG (log 2 fold change): 0.255
[2]; Dose 2.00 uM, primary screen
  Z.CTG (standard z score): 0.895
  Dose.FC.CTG (log 2 fold change): 0.375
[2]; Dose 10.00 uM, primary screen
  Z.CTG (standard z score): 0.597
  Dose.FC.CTG (log 2 fold change): 0.250
[3]; Dose 0.08 uM, primary screen
  Z.LYZ.NS (standard z score): 1.775
  Dose.FC.LYZ.NS (log 2 fold change): 0.204
[3]; Dose 0.40 uM, primary screen
  Z.LYZ.NS (standard z score): 1.073
  Dose.FC.LYZ.NS (log 2 fold change): 0.123
[3]; Dose 2.00 uM, primary screen
  Z.LYZ.NS (standard z score): 1.073
  Dose.FC.LYZ.NS (log 2 fold change): 0.123
[3]; Dose 10.00 uM, primary screen
  Z.LYZ.NS (standard z score): 0.670
  Dose.FC.LYZ.NS (log 2 fold change): 0.077

## Cc1ccc2c(=O)c3cccc(CC(=O)O)c3oc2c1C [DMXAA (Vadimezan)]
[1]; Dose 0.08 uM, ENR+CD, 6 days
  Dose.FC.LYZ.S: −0.091 log 2 fold change
[1]; Dose 0.40 uM, ENR+CD, 6 days
  Dose.FC.LYZ.S: −0.009 log 2 fold change
[1]; Dose 2.00 uM, ENR+CD, 6 days
  Dose.FC.LYZ.S: −0.094 log 2 fold change
[1]; Dose 10.00 uM, ENR+CD, 6 days
  Dose.FC.LYZ.S: −0.118 log 2 fold change
[2]; Dose 0.08 uM, ENR+CD, 6 days
  Dose.FC.CTG: −0.568 log 2 fold change
[2]; [8]
  Z.CTG: −1.357
[2]; Dose 0.40 uM, ENR+CD, 6 days
  Dose.FC.CTG: −0.629 log 2 fold change
[2]; [9]
  Z.CTG: −1.502
[2]; Dose 2.00 uM, ENR+CD, 6 days
  Dose.FC.CTG: −0.477 log 2 fold change
[2]; [10]
  Z.CTG: −1.139
[2]; Dose 10.00 uM, ENR+CD, 6 days
  Dose.FC.CTG: −0.230 log 2 fold change
[2]; [11]
  Z.CTG: −0.550
[3]; Dose 0.08 uM, ENR+CD, 6 days
  Dose.FC.LYZ.NS: −0.007 log 2 fold change
[3]; Dose 0.08 uM
  Z.LYZ.NS: −0.065
[3]; Dose 0.40 uM, ENR+CD, 6 days
  Dose.FC.LYZ.NS: −0.036 log 2 fold change
[3]; Dose 0.40 uM
  Z.LYZ.NS: −0.317
[3]; Dose 2.00 uM, ENR+CD, 6 days
  Dose.FC.LYZ.NS: −0.038 log 2 fold change
[3]; Dose 2.00 uM
  Z.LYZ.NS: −0.334
[3]; Dose 10.00 uM, ENR+CD, 6 days
  Dose.FC.LYZ.NS: −0.031 log 2 fold change
[3]; Dose 10.00 uM
  Z.LYZ.NS: −0.271
